Test results published in PMC9271885 (eBioMedicine, 2022).
“And” between values parts separate entries of the source, which are not always exact repeats. Equal values may be shown once. Read-outs that look alike come from different tables or passages of the source.

Test: Quantification of TIZ in plasma, lung and nasal turbinates of hamsters (HPLC-UV)
Type: in vivo, Syrian hamsters
Settings: for TIZ concentration Lung (µM/g) / L/p ratio (%) / TIZ concentration Lung: individual values; for Tizoxanide concentration in lungs / Lung to plasma ratio / Tizoxanide concentration in blood / concentration at 12 h: individual animals
Protocol: Quantification of TIZ in plasma and lung tissues was performed by high-performance liquid chromatography with UV detection method (Alliance 2695, Waters, USA) with a lower limit of quantification of 0.01µg/mL. The mobile phase consisted of 0.1% FA in water and 0.1% of FA in ACN (65:35, v/v). The chromatographic separation was achieved using an isocratic mode with an Xbridge BEH C18 2.5μm 4.6 × 100mm column. Peak area was quantified at 340nm using the Waters 2489 detector. TIZ was extracted by a simple protein precipitation method, using acetonitrile for plasma and ice-cold acetonitrile for clarified lung homogenates. Briefly, 200µL of samples matrix was added to 1000µL of acetonitrile solution containing the internal standard (thiopental), then vortexed for 2min followed by centrifugation for 10min at 4°C. The supernatant medium was evaporated under vacuum, then transferred to a 1.5mL Eppendorf tube. The dried residue was reconstituted with 100µl of ACN:water (50:50), vortexed for 30 seconds and centrifuged again for 10min at 4°C. The supernatant was transferred to an autosampler and 50µL was injected.
We used tissues from infected animals sacrificed at 3 dpi following multiple administration (animals from Figure 3); an additional group of uninfected animals treated with a single dose of 13.5mg was used as control. TIZ concentration in plasma and in lung was quantified at 1, 2 and 4 hours post treatment for the single dose analysis (group of 3 animals) and at 12 hours after the last administration for the multiple dose analysis (group of 6 animals).

[1] = multiple dose NTZ 750mg/kg/day TID oral, at 3 dpi, 12 hours (trough)
[2] = multiple dose, infected animals, nitazoxanide per os 500 mg/kg/day BID, 12h post-administration
[3] = multiple dose, infected animals, nitazoxanide per os 750 mg/kg/day TID, 12h post-administration
[4] = single dose nitazoxanide 13.5mg, uninfected animals, 1h post-administration
[5] = single dose nitazoxanide 13.5mg, uninfected animals, 2h post-administration
[6] = single dose nitazoxanide 13.5mg, uninfected animals, 4h post-administration
[7] = single oral dose 13.5mg NTZ, uninfected hamsters, 1 h post-treatment
[8] = single oral dose 13.5mg NTZ, uninfected hamsters, 2 h post-treatment
[9] = single oral dose 13.5mg NTZ, uninfected hamsters, 4 h post-treatment

O=C(Nc1ncc([N+](=O)[O-])s1)c1ccccc1O [TIZ, tizoxanide]
TIZ concentration Lung (µM/g) (multiple dose NTZ 500mg/kg/day BID oral, at 3 dpi, 12 h (trough)): 0.21 µM/g | L/p ratio (%) [1]: 2.9% and 6.3% | TIZ concentration Lung (µM/g) [1]: 0.28 µM/g and 0.60 µM/g | Tizoxanide concentration in lungs (multiple dose, infected animals, nitazoxanide IN 2,8 mg/kg/day TID, 12h post-administration): 0.39 µM/g of lung and 11.3 ng/mL and 110 ng/g of lung and 0.41 µM/g of lung | Lung to plasma ratio [2]: 2.7% and 32.8% | Tizoxanide concentration in blood [2]: 40 ng/mL and 159 ng/mL and 2131 ng/mL and 2192 ng/mL and 171 ng/mL | Tizoxanide concentration in lungs [2]: 0.21 µM/g of lung and 10.6 ng/mL and 56 ng/g of lung | concentration at 12 h (multiple dose, infected animals, nitazoxanide per os 500 mg/kg/day BID, 12h post-administration, read-out: Tizoxanide concentration in blood): 0.15 µM and 0.60 µM and 8.03 µM and 8.26 µM and 0.64 µM | concentration at 12 h (multiple dose, infected animals, nitazoxanide per os 500 mg/kg/day BID, 12h post-administration, read-out: Tizoxanide concentration in lungs): 0.04 µM | Lung to plasma ratio [3]: 2.9% and 6.3% | Tizoxanide concentration in blood [3]: 40 ng/mL and 2494 ng/mL and 79 ng/mL and 2205 ng/mL and 1637 ng/mL and 2500 ng/mL | Tizoxanide concentration in lungs [3]: 9.7 ng/mL and 73 ng/g of lung and 0.28 µM/g of lung and 21.0 ng/mL and 158 ng/g of lung and 0.60 µM/g of lung | concentration at 12 h (multiple dose, infected animals, nitazoxanide per os 750 mg/kg/day TID, 12h post-administration, read-out: Tizoxanide concentration in blood): 0.15 µM and 9.40 µM and 0.30 µM and 8.31 µM and 6.17 µM and 9.43 µM | concentration at 12 h (multiple dose, infected animals, nitazoxanide per os 750 mg/kg/day TID, 12h post-administration, read-out: Tizoxanide concentration in lungs): 0.08 µM | Lung to plasma ratio [4]: 4.8% and 2.2% | Tizoxanide concentration in blood [4]: 3319 ng/mL and 10008 ng/mL and 2151 ng/mL | Tizoxanide concentration in lungs [4]: 0.61 µM/g of lung and 26.7 ng/mL and 224 ng/g of lung and 0.84 µM/g of lung | concentration at 12 h (single dose nitazoxanide 13.5mg, uninfected animals, 1h post-administration, read-out: Tizoxanide concentration in blood): 12.51 µM and 37.73 µM and 8.11 µM | concentration at 12 h (single dose nitazoxanide 13.5mg, uninfected animals, 1h post-administration, read-out: Tizoxanide concentration in lungs): 0.10 µM | Tizoxanide concentration in blood [5]: 1477 ng/mL and 3758 ng/mL and 4927 ng/mL | Tizoxanide concentration in lungs [5]: 0.50 µM/g of lung | concentration at 12 h (single dose nitazoxanide 13.5mg, uninfected animals, 2h post-administration, read-out: Tizoxanide concentration in blood): 5.57 µM and 14.17 µM and 18.58 µM | Tizoxanide concentration in blood [6]: 344 ng/mL and 666 ng/mL and 1459 ng/mL | Tizoxanide concentration in lungs [6]: 0.23 µM/g of lung | concentration at 12 h (single dose nitazoxanide 13.5mg, uninfected animals, 4h post-administration, read-out: Tizoxanide concentration in blood): 1.30 µM and 2.51 µM and 5.50 µM | L/p ratio (%) [7]: 4.8% and 2.2% | TIZ concentration Lung [7]: 0.16 µg/g and 0.22 µg/g | TIZ concentration Lung (µM/g) [7]: 0.61 µM/g and 0.84 µM/g | TIZ concentration Lung [8]: 0.13 µg/g | TIZ concentration Lung (µM/g) [8]: 0.50 µM/g | TIZ concentration Lung [9]: 0.06 µg/g | TIZ concentration Lung (µM/g) [9]: 0.23 µM/g
